Results taken from the NIST ThermoML archive (doi:10.1016/j.jct.2006.03.015).

Legend:
[1] = mn = molality of the nth substance listed, in mol/kg; conditions: 101 kPa, Liquid; for apparent molar heat capacity: Flow calorimetry
[2] = Crystal; visual observation

CC(=O)N[C@@H](CCC(N)=O)C(N)=O [(S)-2-acetamidopentanediamide] + O
[1]
Conditions	apparent molar heat capacity [J/K/mol]	mass density [kg/m3]
288.15 K, m1 = 0.03981	353.8	1000.96
288.15 K, m1 = 0.04349	350.3	1001.13
288.15 K, m1 = 0.0507	353.7	1001.46
288.15 K, m1 = 0.05943	355.1	1001.86
288.15 K, m1 = 0.06967	356.4	1002.33
288.15 K, m1 = 0.07857	350.8	1002.75
288.15 K, m1 = 0.08453	356.6	1003.03
288.15 K, m1 = 0.09265	354.1	1003.38
288.15 K, m1 = 0.1008	353.9	1003.78
298.15 K, m1 = 0.04537	377.9	999.104
298.15 K, m1 = 0.05783	383.7	999.659
298.15 K, m1 = 0.06765	378	1000.1
298.15 K, m1 = 0.08263	379.9	1000.77
298.15 K, m1 = 0.09722	382.3	1001.41
298.15 K, m1 = 0.1055	382.8	1001.79
298.15 K, m1 = 0.1217	379.5	1002.51
298.15 K, m1 = 0.133	381.1	1003.01
298.15 K, m1 = 0.1455	382.4	1003.56
313.15 K, m1 = 0.03917	407.2	–
313.15 K, m1 = 0.04565	409.1	994.219
313.15 K, m1 = 0.05555	410.8	994.65
313.15 K, m1 = 0.06371	410.7	995.007
313.15 K, m1 = 0.07398	410.7	995.463
313.15 K, m1 = 0.08191	408.9	995.809
313.15 K, m1 = 0.08959	408.6	996.143
313.15 K, m1 = 0.1002	409	996.596
328.15 K, m1 = 0.03787	430.2	987.321
328.15 K, m1 = 0.04577	430	987.659
328.15 K, m1 = 0.05585	431.2	988.092
328.15 K, m1 = 0.0626	431.6	988.383
328.15 K, m1 = 0.07189	432.4	988.783
328.15 K, m1 = 0.08069	430.4	989.147
328.15 K, m1 = 0.0903	429.9	989.565
328.15 K, m1 = 0.1056	–	990.212

CC(=O)N[C@@H](CCCCN)C(N)=O.Cl [(S)-2-acetamido-6-aminohexanamide hydrochloride]
Conditions	Normal melting temperature [°C]
[2]	144.4

CC(=O)N[C@@H](CCCCN)C(N)=O.Cl [(S)-2-acetamido-6-aminohexanamide hydrochloride] + O
[1]
Conditions	apparent molar heat capacity [J/K/mol]	mass density [kg/m3]
288.15 K, m1 = 0.02301	333.4	1000.28
288.15 K, m1 = 0.02858	336.3	1000.57
288.15 K, m1 = 0.0372	339.9	1001.01
288.15 K, m1 = 0.04378	339.8	1001.34
288.15 K, m1 = 0.05396	339.8	1001.86
288.15 K, m1 = 0.06411	343.1	1002.37
288.15 K, m1 = 0.07273	342	1002.8
288.15 K, m1 = 0.08089	341.3	1003.21
288.15 K, m1 = 0.08886	340.4	1003.6
288.15 K, m1 = 0.0972	343.1	1004.02
298.15 K, m1 = 0.02795	377.8	998.439
298.15 K, m1 = 0.03712	377.9	998.893
298.15 K, m1 = 0.04507	379.4	999.283
298.15 K, m1 = 0.05411	379.1	999.729
298.15 K, m1 = 0.06514	378.6	1000.27
298.15 K, m1 = 0.07363	379	1000.68
298.15 K, m1 = 0.08347	378.8	1001.16
298.15 K, m1 = 0.08995	379	1001.47
313.15 K, m1 = 0.02397	404.5	993.394
313.15 K, m1 = 0.03035	411.1	993.703
313.15 K, m1 = 0.03705	406.4	994.027
313.15 K, m1 = 0.04583	409.4	994.449
313.15 K, m1 = 0.05213	–	994.754
313.15 K, m1 = 0.05469	404	–
313.15 K, m1 = 0.05752	–	995.015
313.15 K, m1 = 0.06361	405.8	995.306
313.15 K, m1 = 0.06804	408	995.516
313.15 K, m1 = 0.07802	406.1	995.99
328.15 K, m1 = 0.02685	429	986.984
328.15 K, m1 = 0.03581	428	987.412
328.15 K, m1 = 0.04352	428.9	987.778
328.15 K, m1 = 0.05273	429.2	988.207
328.15 K, m1 = 0.06308	431.9	988.699
328.15 K, m1 = 0.07041	431.9	989.042
328.15 K, m1 = 0.08088	432.4	989.527
328.15 K, m1 = 0.0877	433.2	989.846

CC(=O)N[C@@H](CC(N)=O)C(N)=O [(S)-2-acetamidosuccinamide]
Conditions	Normal melting temperature [°C]
[2]	244

CC(=O)N[C@@H](CCC(N)=O)C(N)=O [(S)-2-acetamidopentanediamide]
Conditions	Normal melting temperature [°C]
[2]	192.4

CC(=O)NC(=O)[C@@H](N)Cc1ccc(O)cc1 [N-Acetyl-L-tyrosinamide] + O
[1]
Conditions	apparent molar heat capacity [J/K/mol]	mass density [kg/m3]
288.15 K, m1 = 0.01175	508.1	999.692
288.15 K, m1 = 0.012	504.2	999.707
288.15 K, m1 = 0.01302	504.9	999.758
288.15 K, m1 = 0.01344	509	999.773
288.15 K, m1 = 0.01395	505.4	999.805
288.15 K, m1 = 0.01495	502.3	999.855
288.15 K, m1 = 0.01591	501.9	999.904
288.15 K, m1 = 0.01705	500.4	999.955
288.15 K, m1 = 0.0179	501.6	1000
288.15 K, m1 = 0.01902	503.4	1000.05
288.15 K, m1 = 0.01984	502.6	1000.1
298.15 K, m1 = 0.01196	517	997.637
298.15 K, m1 = 0.013	517.7	997.684
298.15 K, m1 = 0.01383	515.6	997.725
298.15 K, m1 = 0.01493	517	997.781
298.15 K, m1 = 0.01497	–	997.785
298.15 K, m1 = 0.01592	516.9	997.83
298.15 K, m1 = 0.017	–	997.885
298.15 K, m1 = 0.01809	519.4	997.94
298.15 K, m1 = 0.01905	–	997.984
298.15 K, m1 = 0.02018	511.5	998.035
313.15 K, m1 = 0.01197	542.3	992.782
313.15 K, m1 = 0.01299	543.8	992.827
313.15 K, m1 = 0.01401	543	992.874
313.15 K, m1 = 0.01501	545.3	992.925
313.15 K, m1 = 0.01596	546.3	992.967
313.15 K, m1 = 0.01693	541.4	993.013
313.15 K, m1 = 0.01787	543.5	993.057
313.15 K, m1 = 0.01892	542.6	993.101
328.15 K, m1 = 0.01201	553.5	986.242
328.15 K, m1 = 0.01295	552.2	986.289
328.15 K, m1 = 0.01394	549.9	986.33
328.15 K, m1 = 0.0149	556.4	986.378
328.15 K, m1 = 0.0159	554.4	986.421
328.15 K, m1 = 0.01694	552	986.462
328.15 K, m1 = 0.01796	555.6	986.514
328.15 K, m1 = 0.0189	555.1	986.548

CC(=O)NC(=O)[C@@H](N)Cc1ccc(O)cc1 [N-Acetyl-L-tyrosinamide]
Conditions	Normal melting temperature [°C]
[2]	225
